In patent US8980848B2, “Flavonoid dimers and their use” (The Hong Kong Polytechnic University, priority 2010, dated 2015):

What was measured:
[1] = Tumor cell line cytotoxicity of flavonoid dimers, LCC6MDR; assay type: cell-based, human; settings: human, LCC6MDR cells, IC50 of compound alone
Procedure: (§1) (b) Tumor Cell Line Cytotoxicity. The tumor cytotoxicity assays of flavonoid dimers were performed against LCC6, LCC6MDR and L929 cell lines. […] In brief, LCC6, LCC6MDR and L929 cells were seeded into 96-well flat bottom microtiter plate at 1×10^4 cells per well in a final volume of 100 μL media, respectively. A graded dose of flavonoid dimers was added into wells. The plate was incubated at 37° C. for 72 hrs at the atmosphere 5% CO2 in the air. The % of survivors was determined.

[2] = Tumor cell line cytotoxicity of flavonoid dimers, LCC6; assay type: cell-based, human; settings: human, LCC6 cells, IC50 of compound alone
Procedure: as §1

[3] = Cytotoxicity of flavonoid dimers, L929 mouse fibroblast; assay type: cell-based; settings: mouse, L929 fibroblast cells, IC50 of compound alone, 72 hrs, mouse fibroblast
Procedure: as §1

Pgp (LCC6MDR cells) = Pgp (LCC6MDR cells) (Homo sapiens, UniProt P08183); assay: Cell proliferation assay: Pgp-modulating activity, reversal of anticancer drug resistance in LCC6MDR cells; settings: for RF (Relative Fold), cpd at 0.5 μM: RF = (IC50 without modulator)/(IC50 with 0.5 μM modulator); for RF (Relative Fold), cpd at 0.5 μM / RF (Relative Fold), cpd at 1 μM: paclitaxel; for RF (Relative Fold), cpd at 0.5 μM / RF (Relative Fold), cpd at 1 μM / EC50: LCC6MDR; for RF (Relative Fold), cpd at 1 μM: RF = (IC50 without modulator)/(IC50 with 1.0 μM modulator); for EC50: EC50 of compounds for reversing anticancer drug resistance (nM), Paclitaxel; for Therapeutic index: IC50 of compounds for L929/EC50 of compounds for lowering paclitaxel drug resistance
Chain of Pgp (LCC6MDR cells) (P08183 whole entry): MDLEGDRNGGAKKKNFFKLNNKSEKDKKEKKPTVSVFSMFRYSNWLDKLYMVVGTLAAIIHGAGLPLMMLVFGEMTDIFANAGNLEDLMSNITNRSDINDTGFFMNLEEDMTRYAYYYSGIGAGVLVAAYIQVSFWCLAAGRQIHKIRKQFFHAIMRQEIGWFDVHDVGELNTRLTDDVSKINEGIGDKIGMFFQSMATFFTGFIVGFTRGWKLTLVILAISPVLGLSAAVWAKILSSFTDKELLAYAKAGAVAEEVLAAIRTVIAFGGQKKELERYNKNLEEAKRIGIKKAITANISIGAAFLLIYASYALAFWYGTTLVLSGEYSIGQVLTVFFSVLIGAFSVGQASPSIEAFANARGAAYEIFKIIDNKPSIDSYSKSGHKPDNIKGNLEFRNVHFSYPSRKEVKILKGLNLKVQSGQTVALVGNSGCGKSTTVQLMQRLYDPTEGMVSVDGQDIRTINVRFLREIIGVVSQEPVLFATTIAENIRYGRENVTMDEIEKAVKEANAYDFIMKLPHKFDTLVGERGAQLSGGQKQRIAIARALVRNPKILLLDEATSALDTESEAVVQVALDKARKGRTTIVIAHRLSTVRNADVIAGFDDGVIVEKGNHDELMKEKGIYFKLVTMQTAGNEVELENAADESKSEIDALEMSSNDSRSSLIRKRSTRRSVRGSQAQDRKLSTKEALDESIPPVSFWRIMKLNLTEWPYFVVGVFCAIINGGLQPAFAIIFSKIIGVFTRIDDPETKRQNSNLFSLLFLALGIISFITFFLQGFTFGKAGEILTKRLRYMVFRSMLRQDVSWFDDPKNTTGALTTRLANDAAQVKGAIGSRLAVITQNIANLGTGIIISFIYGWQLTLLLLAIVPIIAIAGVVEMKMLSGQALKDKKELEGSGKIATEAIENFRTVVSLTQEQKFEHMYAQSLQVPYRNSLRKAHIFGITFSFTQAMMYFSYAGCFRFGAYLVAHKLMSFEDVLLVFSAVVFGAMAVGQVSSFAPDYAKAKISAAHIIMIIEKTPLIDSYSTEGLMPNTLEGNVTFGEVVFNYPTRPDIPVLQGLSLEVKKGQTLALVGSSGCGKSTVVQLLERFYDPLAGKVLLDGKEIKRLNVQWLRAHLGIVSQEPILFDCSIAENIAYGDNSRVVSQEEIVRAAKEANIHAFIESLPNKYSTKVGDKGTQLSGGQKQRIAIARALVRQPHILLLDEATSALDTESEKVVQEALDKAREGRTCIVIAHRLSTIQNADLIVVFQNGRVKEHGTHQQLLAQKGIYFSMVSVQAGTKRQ
Procedure: Cell Proliferation Assay. 6,000 cells of LCC6 or LCC6MDR and anticancer drugs (paclitaxel, vinblastine, vincristine, doxorubicin and mitoxantrone) were mixed with or without modulators to a final volume of 200 μL in each well of 96-well plates. […] The plates were then incubated for 5 days at 37° C. […] IC50 values were calculated from the dose-response curves of MTS assays (Prism 4.0).

Compound	IC50 at 72 h [1]	IC50 at 72 h [2]	IC50 at 72 h [3]	RF (Relative Fold), cpd at 0.5 μM (Pgp (LCC6MDR cells))	RF (Relative Fold), cpd at 1 μM (Pgp (LCC6MDR cells))	EC50 (Pgp (LCC6MDR cells))	Therapeutic index (Pgp (LCC6MDR cells))
COc1cc(CN(CCOCCOc2ccc(-c3cc(=O)c4ccccc4o3)cc2)CCOCCOc2ccc(-c3cc(=O)c4ccccc4o3)cc2)cc(OC)c1 [Compound 44, 1,13-Bis[4′-(4H-chromen-4-on-2-yl)phenyl]-7-(3,5-dimethoxybenzyl)-1,4,10,13-tetraoxa-7-azamidecane]	> 100 µM	> 100 µM	> 100 µM	(19.1)	(51.0)		
Cc1cccc(CN(CCOCCOc2ccc(-c3cc(=O)c4ccccc4o3)cc2)CCOCCOc2ccc(-c3cc(=O)c4ccccc4o3)cc2)c1 [Compound 45, 1,13-Bis[4′-(4H-chromen-4-on-2-yl)phenyl]-7-(3-methylbenzyl)-1,4,10,13-tetraoxa-7-azamidecane]	> 66 µM	57.7 ± 5.9 µM	55 ± 4.4 µM	(32.6)	(102.1)		
Cc1ccccc1CN(CCOCCOc1ccc(-c2cc(=O)c3ccccc3o2)cc1)CCOCCOc1ccc(-c2cc(=O)c3ccccc3o2)cc1 [Compound 46, 1,13-Bis[4′-(4H-chromen-4-on-2-yl)phenyl]-7-(2-methylbenzyl)-1,4,10,13-tetraoxa-7-azamidecane]	> 100 µM	> 100 µM	> 100 µM	(32.6)	(117.8)		
Cc1ccc(CN(CCOCCOc2ccc(-c3cc(=O)c4ccccc4o3)cc2)CCOCCOc2ccc(-c3cc(=O)c4ccccc4o3)cc2)cc1 [Compound 47, 1,13-Bis[4′-(4H-chromen-4-on-2-yl)phenyl]-7-(4-methylbenzyl)-1,4,10,13-tetraoxa-7-azamidecane]	> 81 µM	> 100 µM	66.4 ± 16.8 µM	(31.2)	(109.4)		
O=c1cc(-c2ccc(OCCOCCN(CCOCCOc3ccc(-c4cc(=O)c5ccccc5o4)cc3)Cc3cccc(Cl)c3)cc2)oc2ccccc12 [Compound 48, 1,13-Bis[4′-(4H-chromen-4-on-2-yl)phenyl]-7-(3-chlorobenzyl)-1,4,10,13-tetraoxa-7-azamidecane]	> 98 µM	> 100 µM	> 100 µM	(19.6)	(80.6)		
O=c1cc(-c2ccc(OCCOCCN(CCOCCOc3ccc(-c4cc(=O)c5ccccc5o4)cc3)Cc3ccccc3Cl)cc2)oc2ccccc12 [Compound 50, 1,13-Bis[4′-(4H-chromen-4-on-2-yl)phenyl]-7-(2-chlorobenzyl)-1,4,10,13-tetraoxa-7-azamidecane]	> 100 µM	> 100 µM	> 100 µM	(11.9)	(95.7)		
N#Cc1ccc(CN(CCOCCOc2ccc(-c3cc(=O)c4ccccc4o3)cc2)CCOCCOc2ccc(-c3cc(=O)c4ccccc4o3)cc2)cc1 [Compound 51, 1,13-Bis[4′-(4H-chromen-4-on-2-yl)phenyl]-7-(4-cyanobenzyl)-1,4,10,13-tetraoxa-7-azamidecane]	> 100 µM	> 100 µM	25.2 ± 12.4 µM	(2.6)	(5.9)		
C=Cc1ccc(CN(CCOCCOc2ccc(-c3cc(=O)c4ccccc4o3)cc2)CCOCCOc2ccc(-c3cc(=O)c4ccccc4o3)cc2)cc1 [Compound 52, 1,13-Bis[4′-(4H-chromen-4-on-2-yl)phenyl]-7-(4-vinylbenzyl)-1,4,10,13-tetraoxa-7-azamidecane]	28.3 ± 8.2 µM	21 ± 4.7 µM	7.4 ± 1 µM	(72.9)	(117.8)		
CCc1ccc(CN(CCOCCOc2ccc(-c3cc(=O)c4ccccc4o3)cc2)CCOCCOc2ccc(-c3cc(=O)c4ccccc4o3)cc2)cc1 [Compound 53, 1,13-Bis[4′-(4H-chromen-4-on-2-yl)phenyl]-7-(4-ethylbenzyl)-1,4,10,13-tetraoxa-7-azamidecane]	> 100 µM	> 100 µM	25.4 ± 8.1 µM	(23.9)	(69.6)		
CC(C)(C)OC(=O)Nc1ccc(CN(CCOCCOc2ccc(-c3cc(=O)c4ccccc4o3)cc2)CCOCCOc2ccc(-c3cc(=O)c4ccccc4o3)cc2)cc1 [Compound 54, 1,13-Bis[4′-(4H-chromen-4-on-2-yl)phenyl]-7-(4-tert-butyloxycarbonylanimobenzyl)-1,4,10,13-tetraoxa-7-azamidecane]	> 50 µM	> 50 µM	> 50 µM	(45.0)	(95.7)	188 nM	266.0
Nc1ccc(CN(CCOCCOc2ccc(-c3cc(=O)c4ccccc4o3)cc2)CCOCCOc2ccc(-c3cc(=O)c4ccccc4o3)cc2)cc1 [Compound 55, 1,13-Bis[4′-(4H-chromen-4-on-2-yl)phenyl]-7-(4-aminobenzyl)-1,4,10,13-tetraoxa-7-azamidecane]	> 50 µM	> 50 µM	> 50 µM	(8.8)	(72.9)	244 nM	204.9
O=c1cc(-c2ccc(OCCOCCN(CCOCCOc3ccc(-c4cc(=O)c5ccccc5o4)cc3)Cc3cccc(-c4ccccc4)c3)cc2)oc2ccccc12 [Compound 56, 1,13-Bis[4′-(4H-chromen-4-on-2-yl)phenyl]-7-(3-phenylbenzyl)-1,4,10,13-tetraoxa-7-azamidecane]	> 100 µM	> 100 µM	> 100 µM	(2.7)	(38.5)		
O=c1cc(-c2ccc(OCCOCCN(CCOCCOc3ccc(-c4cc(=O)c5ccccc5o4)cc3)Cc3ccc4ccccc4c3)cc2)oc2ccccc12 [Compound 58, 1,13-Bis[4′-(4H-chromen-4-on-2-yl)phenyl]-7-(2-naphthalenylmethyl)-1,4,10,13-tetraoxa-7-azamidecane]	8.9 ± 3.3 µM	4.8 ± 0.4 µM	5.1 ± 0.3 µM	(95.7)	(117.8)	92 ± 11 nM	55.4
O=c1cc(-c2ccc(OCCOCCN(CCOCCOc3ccc(-c4cc(=O)c5ccccc5o4)cc3)Cc3nc4ccccc4[nH]3)cc2)oc2ccccc12 [Compound 60, 1,13-Bis[4′-(4H-chromen-4-on-2-yl)phenyl]-7-(2-benzimidazolylmethyl)-1,4,10,13-tetraoxa-7-azamidecane]	> 100 µM	> 100 µM	> 70 µM	(21.9)	(117.8)		
O=c1cc(-c2ccc(OCCOCCN(CCOCCOc3ccc(-c4cc(=O)c5ccccc5o4)cc3)CC3CCCCC3)cc2)oc2ccccc12 [Compound 62, 1,13-Bis[4′-(4H-chromen-4-on-2-yl)phenyl]-7-(cyclohexanylmethyl)-1,4,10,13-tetraoxa-7-azamidecane]	7.9 ± 2.7 µM	10 ± 4.7 µM	18.9 ± 2.3 µM	(56.7)	(117.8)	132 ± 7 nM	143.2
O=c1cc(-c2ccc(OCCOCCN(CCOCCOc3ccc(-c4cc(=O)c5ccccc5o4)cc3)Cc3cccnc3)cc2)oc2ccccc12 [Compound 64a, 1,13-Bis[4′-(4H-chromen-4-on-2-yl)phenyl]-7-(3-pyridylmethyl)-1,4,10,13-tetraoxa-7-azamidecane]	4.7 ± 0.2 µM	5.7 ± 1.4 µM	2.3 ± 0.2 µM	(8.5)	(46.4)		
O=c1cc(-c2ccc(OCCOCCN(CCOCCOc3ccc(-c4cc(=O)c5ccccc5o4)cc3)Cc3ccnc(Br)c3)cc2)oc2ccccc12 [Compound 64b, 1,13-Bis[4′-(4H-chromen-4-on-2-yl)phenyl]-7-(4-(2-bromopyridyl)methyl)-1,4,10,13-tetraoxa-7-azamidecane]	> 100 µM	> 100 µM	> 100 µM	(8.4)	(76.6)		
N#Cc1cc(CN(CCOCCOc2ccc(-c3cc(=O)c4ccccc4o3)cc2)CCOCCOc2ccc(-c3cc(=O)c4ccccc4o3)cc2)ccn1 [Compound 64c, 1,13-Bis[4′-(4H-chromen-4-on-2-yl)phenyl]-7-(4-(2-cyanopyridyl)methyl)-1,4,10,13-tetraoxa-7-azamidecane]	> 100 µM	> 100 µM	> 50 µM	(19.4)	(66.6)		
O=c1cc(-c2ccc(OCCOCCN(CCOCCOc3ccc(-c4cc(=O)c5ccccc5o4)cc3)Cc3ccncc3Br)cc2)oc2ccccc12 [Compound 64d, 1,13-Bis[4′-(4H-chromen-4-on-2-yl)phenyl]-7-(4-(3-bromopyridyl)methyl)-1,4,10,13-tetraoxa-7-azamidecane]	> 100 µM	> 100 µM	> 50 µM	(10.6)	(61.2)		
